Values after ≈ are worked out from the molar mass of the structure shown.
Columns and labels:
[1] = test system: HCMV recombinant mutant virus (RV145); assay: HCMV microtiter plate assay (beta-glucuronidase reporter); format: cell-based, Human Cytomegalovirus; conditions: for IC50 (ug/ml) HCMV: HCMV in human foreskin fibroblasts
Description: Ninety-six well plate cultures of human foreskin fibroblasts are infected in the presence of inhibitor compound with a HCMV recombinant mutant virus whose genome contains the prokaryotic beta-glucuronidase gene (Jefferson, R. A., S. M. Burgess, and D. Hirsh. 1986. Beta-glucuronidase from Escherichia coli as a gene fusion marker. Proc. Natl. Acad. Sci. USA 83:8447-8451) whose expression is controlled by a viral promoter. An example of such a virus is RV145 (Jones, T. R., V. P. Muzithras, and Y. Gluzman. 1991. Replacement mutagenesis of the human cytomegalovirus genome: US10 and US11 gene products are nonessential. J. Virol. 65:5860-5872). Since it is under the control of a viral promoter, beta-glucuronidase expression is an indirect indicator of growth and replication of HCMV in this assay. At 96 hours post-infection, the infected cell lysates are prepared (using 50 mM sodium phosphate [pH7.0] containing 0.1% Triton X-100 and 0.1% sarkosyl) and assayed for beta-glucuronidase activity using a substrate for the enzyme which when cleaved yields either a product which can be measured colorimetrically in a spectrophotometer or fluorescently in a microfluorimeter. Examples of such substrates are p-nitrophenyl-beta-D-glucuronide and methylumbelliferylglucuronide, respectively. The presence of an antiviral compound is indicated by the reduced expression of the HCMV genome resident beta-glucuronidase gene, compared to the absence of inhibitor. […] Data from this assay generated using varying amounts of inhibitor compound is also used to estimate the IC50 of an inhibitor compound.

HSV-1 = assay: HSV Antiviral (ELISA) assay; format: cell-based; conditions: for IC50 (ug/ml) HSV: HSV-1 in Vero cells
Procedure: Vero cells (ATCC #CCL-81) are plated on 96-well tissue culture plates at 3.5×10^4 cells per 100 μl tissue culture DMEM (Dulbecco's modified Eagle media) supplemented with 2% fetal bovine serum (FBS) in each well. After overnight incubation @ 37° C. (in 5% CO2) and 30 minutes prior to infection with HSV-1 (multiplicity of infection equal to 0.006), cells are either untreated, or treated with test compound (multiple concentrations) or reference standard drug control. After approximately 24 hours post-infection incubation @ 37° C. (in 5% CO2), cells are fixed for ELISA assay. The primary antibody is murine anti-HSV glycoprotein D monoclonal primary antibody and the secondary antibody is goat anti-mouse IgG linked to β-galactosidase. Thus the extent of viral replication is determined by assessing β-galactosidase activity by quantifying the generation of the 4-methyl umbelliferone fluorescent cleavage product after addition of the methyl umbelliferyl-β-D-galactoside (Sigma #M1633) substrate on a microfluorimeter (365 nm for excitation and 450 nm for emission). Antiviral activity (IC50) of the test compound is determined by comparing the flourescence obtained in absence of compound to that obtained in the presence of compound.

O=C(Nc1ccc(NC(=S)NCc2cc(C(F)(F)F)ccc2F)cc1)c1ccco1 [Example 670]
IC50 (ug/ml) HCMV [1]: 0.02 µg/mL (≈ 0.0457 µM)
IC50 (ug/ml) HSV (HSV-1): >10 µg/mL

O=C(Nc1ccc(NC(=S)NCCOc2cccc(Cl)c2)cc1)c1ccco1 [Example 667]
IC50 (ug/ml) HCMV [1]: 0.03 µg/mL (≈ 0.0721 µM)
IC50 (ug/ml) HSV (HSV-1): 8 µg/mL (≈ 19.2 µM)

COc1ccc(Br)cc1CCNC(=S)Nc1ccc(NC(=O)c2csnn2)cc1 [Example 682]
IC50 (ug/ml) HCMV [1]: 0.006 µg/mL (≈ 0.0122 µM)
IC50 (ug/ml) HSV (HSV-1): >10 µg/mL

O=C(Nc1ccc(NC(=S)Nc2cc(C(F)(F)F)cc(C(F)(F)F)c2)cc1)c1cocn1 [Example 715]
IC50 (ug/ml) HCMV [1]: 0.03 µg/mL (≈ 0.0632 µM)
IC50 (ug/ml) HSV (HSV-1): >10 µg/mL

O=C(Nc1ccc(NC(=S)NCCc2cccc(I)c2)cc1)c1csnn1 [Example 768]
IC50 (ug/ml) HCMV [1]: 0.005 µg/mL (≈ 0.00982 µM)
IC50 (ug/ml) HSV (HSV-1): >10 µg/mL

O=C(NCc1ccc(Cl)c(Cl)c1)Nc1ccc(NC(=O)c2csnn2)cc1 [Example 90, [1,2,3]Thiadiazole-4-carboxylic acid {4-[3-(3,4-dichloro-benzyl)-ureido]-phenyl}-amide]
IC50 ([1]; Human betaherpesvirus 5, Fibroblast, read-out: IC50 (ug/ml) HCMV): 0.07 µg/mL (≈ 0.166 µM)
IC50 (HSV-1; Human alphaherpesvirus 1, HSV-1 in Vero cells, read-out: IC50 (ug/ml) HSV): > 10 µg/mL

CC(C)(C)c1ccc(CNC(=S)Nc2ccc(NC(=O)c3csnn3)cc2)cc1 [Example 690]
IC50 (ug/ml) HCMV [1]: 0.004 µg/mL (≈ 0.0094 µM)
IC50 (ug/ml) HSV (HSV-1): 7 µg/mL (≈ 16.4 µM)

O=C(Nc1ccc(NC(=S)NCCNc2ccccc2)cc1)c1csnn1 [Example 706]
IC50 (ug/ml) HCMV [1]: 0.04 µg/mL (≈ 0.1 µM)
IC50 (ug/ml) HSV (HSV-1): >10 µg/mL

O=C(Nc1ccc(NC(=S)NCCc2ccccc2F)cc1)c1ccco1 [Example 738]
IC50 (ug/ml) HCMV [1]: 0.11 µg/mL (≈ 0.287 µM)
IC50 (ug/ml) HSV (HSV-1): >10 µg/mL

O=C(Nc1ccc(NC(=S)NCc2ccc(Br)cc2)cc1)c1csnn1 [Example 743]
IC50 (ug/ml) HCMV [1]: 0.09 µg/mL (≈ 0.201 µM)
IC50 (ug/ml) HSV (HSV-1): >10 µg/mL

CC(Cc1ccccc1)NC(=S)Nc1ccc(NC(=O)c2csnn2)cc1 (stereo not drawn) [Example 723]
IC50 (ug/ml) HCMV [1]: 0.03 µg/mL (≈ 0.0755 µM)
IC50 (ug/ml) HSV (HSV-1): >10 µg/mL

O=C(Nc1ccc(NC(=S)NCCSc2ccccc2)cc1)c1csnn1 [Example 655]
IC50 (ug/ml) HCMV [1]: 0.01 µg/mL (≈ 0.0241 µM)
IC50 (ug/ml) HSV (HSV-1): >10 µg/mL

O=C(Nc1ccc(NC(=S)NCCSc2ccccc2)cc1)c1ccco1 [Example 657]
IC50 (ug/ml) HCMV [1]: 0.04 µg/mL (≈ 0.101 µM)
IC50 (ug/ml) HSV (HSV-1): 6 µg/mL (≈ 15.1 µM)

O=C(Nc1ccc(NC(=S)NCCOc2cc(Cl)cc(Cl)c2)cc1)c1csnn1 [Example 688]
IC50 (ug/ml) HCMV [1]: 0.006 µg/mL (≈ 0.0128 µM)
IC50 (ug/ml) HSV (HSV-1): >10 µg/mL

COc1ccc(CCNC(=S)Nc2ccc(NC(=O)c3csnn3)cc2)cc1 [Example 652]
IC50 (ug/ml) HCMV [1]: 0.03 µg/mL (≈ 0.0725 µM)
IC50 (ug/ml) HSV (HSV-1): >10 µg/mL

Cc1cc(CCNC(=S)Nc2ccc(NC(=O)c3csnn3)cc2)ccc1N(C)C [Example 692]
IC50 (ug/ml) HCMV [1]: 0.04 µg/mL (≈ 0.0908 µM)
IC50 (ug/ml) HSV (HSV-1): 6 µg/mL (≈ 13.6 µM)

O=C(Nc1ccc(NC(=S)Nc2cc(Cl)cc(Cl)c2)cc1)c1cocn1 [Example 702]
IC50 (ug/ml) HCMV [1]: 0.01 µg/mL (≈ 0.0246 µM)
IC50 (ug/ml) HSV (HSV-1): 4 µg/mL (≈ 9.82 µM)

O=C(Nc1ccc(NC(=S)NCCc2ccc(F)c(F)c2)cc1)c1csnn1 [Example 716]
IC50 (ug/ml) HCMV [1]: 0.01 µg/mL (≈ 0.0238 µM)
IC50 (ug/ml) HSV (HSV-1): >10 µg/mL

O=C(Nc1ccc(NC(=S)Nc2ccc(Cl)c(Cl)c2)cc1)c1cocn1 [Example 699]
IC50 (ug/ml) HCMV [1]: 0.016 µg/mL (≈ 0.0393 µM)
IC50 (ug/ml) HSV (HSV-1): >10 µg/mL

O=C(Nc1ccc(NC(=S)NCCOc2ccc(Br)cc2)cc1)c1csnn1 [Example 693]
IC50 (ug/ml) HCMV [1]: 0.03 µg/mL (≈ 0.0627 µM)
IC50 (ug/ml) HSV (HSV-1): >10 µg/mL

O=C(Nc1ccc(NC(=S)NCc2cc(C(F)(F)F)ccc2F)cc1)c1cscn1 [Example 746]
IC50 (ug/ml) HCMV [1]: 0.005 µg/mL (≈ 0.011 µM)
IC50 (ug/ml) HSV (HSV-1): >10 µg/mL

O=C(Nc1ccc(NC(=S)Nc2ccccc2F)cc1)c1csnn1 [Example 748]
IC50 (ug/ml) HCMV [1]: 0.28 µg/mL (≈ 0.75 µM)
IC50 (ug/ml) HSV (HSV-1): >10 µg/mL

O=C(Nc1ccc(NC(=S)NCCSc2cc(C(F)(F)F)ccc2F)cc1)c1csnn1 [Example 711]
IC50 (ug/ml) HCMV [1]: 0.004 µg/mL (≈ 0.00798 µM)
IC50 (ug/ml) HSV (HSV-1): >10 µg/mL

O=C(Nc1ccc(NC(=S)NCCc2ccc(C(F)(F)F)cc2)cc1)c1csnn1 [Example 717]
IC50 (ug/ml) HCMV [1]: 0.003 µg/mL (≈ 0.00664 µM)
IC50 (ug/ml) HSV (HSV-1): >10 µg/mL

Reference: patent publication US6426355B1, “Heterocyclic carboxamide-containing thiourea inhibitors of herpes viruses containing phenylenediamine group” (American Home Products, priority 1998, dated 2002)
